What was measured:
Format in all cases: functional, cell-based
[1] = test system: MCF7; assay: Antiproliferative activity against human MCF7 cells measured after 48 hrs by MTT assay; conditions: MCF7, 48 h
[2] = test system: PC-3; assay: Antiproliferative activity against human PC-3 cells measured after 48 hrs by MTT assay; conditions: PC-3, 48 h
[3] = test system: MGC-803; assay: Antiproliferative activity against human MGC-803 cells measured after 48 hrs by MTT assay; conditions: MGC-803, 48 h

Structure (SMILES)	IC50 [1]	IC50 [2]	IC50 [3]
COc1ccc(CN(C(=O)CSc2nnnn2C)c2cc(OC)c(OC)c(OC)c2)cc1	14.4 µM	–	–
COc1ccc(CN(C(=O)C(c2ccccc2)c2ccccc2)c2cc(OC)c(OC)c(OC)c2)cc1	> 80 µM	> 80 µM	> 80 µM
COc1cc(N(Cc2ccc(F)cc2)C(=O)Cc2cccs2)cc(OC)c1OC	50.9 µM	23.1 µM	32.6 µM
COc1cc(N(Cc2cccc(Cl)c2)C(=O)Cc2cccs2)cc(OC)c1OC	42.4 µM	77.9 µM	37 µM
COc1cc(N(Cc2cccc(C)c2)C(=O)Cc2cccs2)cc(OC)c1OC	42.6 µM	26.9 µM	19.7 µM
COc1ccc(CN(C(=O)COc2cccc(Cl)c2)c2cc(OC)c(OC)c(OC)c2)cc1	55.2 µM	30.5 µM	68.7 µM
COc1ccc(CN(C(=O)Cc2cccs2)c2ccccc2)cc1	> 80 µM	> 80 µM	> 80 µM
COc1ccc(CN(C(=O)Cc2cccs2)c2cc(Cl)c(Cl)cc2Cl)cc1	> 80 µM	> 80 µM	> 80 µM
COc1cc(N(Cc2ccc(Cl)cc2)C(=O)Cc2cccs2)cc(OC)c1OC	8.78 µM	19.3 µM	14.3 µM
COc1ccc(CN(C(=O)CSc2nc3ccccc3o2)c2cc(OC)c(OC)c(OC)c2)cc1	6.68 µM	–	–
COc1ccc(CN(C(=O)Cc2ccccc2)c2cc(OC)c(OC)c(OC)c2)cc1	2.68 µM	0.85 µM	6.82 µM
COc1ccc(CN(C(=O)COc2ccccc2)c2cc(OC)c(OC)c(OC)c2)cc1	64.1 µM	19.7 µM	22.7 µM
COc1cc(N(Cc2ccccc2)C(=O)Cc2cccs2)cc(OC)c1OC	48.8 µM	33.9 µM	22 µM
O=c1[nH]cc(F)c(=O)[nH]1 [FLUOROURACIL]	–	17.3 µM	–
COc1ccc(CN(C(=O)COc2ccc(OC)cc2)c2cc(OC)c(OC)c(OC)c2)cc1	46.4 µM	66.4 µM	6.27 µM
COc1ccc(CN(C(=O)Cc2cccs2)c2cc(OC)c(OC)c(OC)c2)cc1N	2.48 µM	1.65 µM	0.1 µM
COc1ccc(CN(C(=O)Cc2ccc(F)cc2)c2cc(OC)c(OC)c(OC)c2)cc1	2.52 µM	2.38 µM	1.81 µM
COc1ccc(CN(C(=O)CSc2ccccn2)c2cc(OC)c(OC)c(OC)c2)cc1	16.1 µM	–	–
COc1cc(N(Cc2ccc(C)cc2)C(=O)Cc2cccs2)cc(OC)c1OC	1.56 µM	16.9 µM	0.84 µM
COc1ccc(CC(=O)N(Cc2ccc(OC)cc2)c2cc(OC)c(OC)c(OC)c2)cc1	0.18 µM	1.49 µM	4.37 µM
COc1ccc(CN(C(=O)Cc2cccs2)c2ccc(OC)c(OC)c2)cc1	> 80 µM	> 80 µM	> 80 µM
COc1ccc(CN(C(=O)Cc2ccc(C)cc2C)c2cc(OC)c(OC)c(OC)c2)cc1	69.4 µM	52.8 µM	28.7 µM
COc1cc(N(Cc2ccc(C(C)(C)C)cc2)C(=O)Cc2cccs2)cc(OC)c1OC	19.4 µM	13.8 µM	22.8 µM
COc1ccc(CN(C(=O)Cc2cccs2)c2ccc(OC)cc2)cc1	> 80 µM	> 80 µM	> 80 µM
COc1ccc(CN(C(=O)Cc2cccc(OC)c2)c2cc(OC)c(OC)c(OC)c2)cc1	1.33 µM	3.04 µM	1.06 µM
COc1ccc(CN(C(=O)COc2cc(OC)c(OC)c(OC)c2)c2cc(OC)c(OC)c(OC)c2)cc1	40.7 µM	> 80 µM	31.2 µM
COc1ccc(CN(C(=O)CSc2nncs2)c2cc(OC)c(OC)c(OC)c2)cc1	19.4 µM	–	–
COc1cc(N(Cc2cccc(F)c2)C(=O)Cc2cccs2)cc(OC)c1OC	27.3 µM	21.4 µM	13.1 µM
COc1cc(N(Cc2ccc(Br)cc2)C(=O)Cc2cccs2)cc(OC)c1OC	6.43 µM	7.68 µM	5.32 µM
